Reference: article PMC9864776, “Synthesis of Novel Polymer-Assisted Organic-Inorganic Hybrid Nanoflowers and Their Application in Cascade Biocatalysis” (Molecules, 2023)

Target: T1, horseradish peroxidase (HRP) (Armoracia rusticana, UniProt P00433)
T1 construct: gene PRXC1A; commercial native enzyme from horseradish, Alfa Aesar; free in solution, together with GOx
T1 sequence (P00433 31-338): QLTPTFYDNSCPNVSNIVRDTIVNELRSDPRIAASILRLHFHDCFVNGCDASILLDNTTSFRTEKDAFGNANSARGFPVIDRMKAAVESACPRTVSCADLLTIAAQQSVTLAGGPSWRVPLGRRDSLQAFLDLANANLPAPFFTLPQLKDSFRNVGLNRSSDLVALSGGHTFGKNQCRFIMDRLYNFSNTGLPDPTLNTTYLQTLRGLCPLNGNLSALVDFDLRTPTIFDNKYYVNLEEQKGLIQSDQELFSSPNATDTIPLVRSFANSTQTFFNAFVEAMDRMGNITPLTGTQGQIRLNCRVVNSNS
Test: GOx/HRP cascade, TMB oxidation by H2O2 formed by GOx, absorbance at […] nm
Format: biochemical
Details: H2O2 from GOx and glucose, 0.2 M acetate buffer pH 4, 20-23 °C; free enzymes

Q: How did the “GOx/HRP cascade, TMB oxidation by H2O2 formed by GOx, absorbance at 652 nm” value turn out when `Cc1cc(-c2cc(C)c(N)c(C)c2)cc(C)c1N` [TMB, 3,3′,5,5′-tetramethylbenzidine] was run?
A: Its value is “the HRP used this H2O2 to oxidize a chromophore compound (TMB)”.
